# According to patent publication US20260355330A1, “CELL PENETRATING PEPTIDES AND USES THEREOF” (VECTIOPEP OÜ, priority 2022, published 2026):
# Positions of bridges follow the written chain, without caps; N, C: chain ends. Non-standard residues stand in square brackets, D forms with d. Residues, ends and D or L forms follow the SMILES beside them. Chains are numbered I, II in the order given. *: point of attachment. Arachidoyl = CCCCCCCCCCCCCCCCCCCC(=O)*; Stearoyl = CCCCCCCCCCCCCCCCCC(=O)*; Palmitoyl = CCCCCCCCCCCCCCCC(=O)*; Orn = NCCC[C@H](N)C(=O)O; Dab = NCC[C@H](N)C(=O)O
# Experiments:
# [1] = tested on: spleen of BALB/c mice; assay: In vivo delivery of mRNA with CPPs - reporter levels in the spleen; settings: for Reporter levels in the spleen (RLU): mRNA, tail vein injection, spleens harvested 16 hours after single injection, whole tissue homogenate; for Efficacy of mRNA delivery into the spleen in vivo: FIG. 5 / Table 5
# Method: FIG. 5: Delivery of mRNA with CPPs in vivo—reporter levels in the spleen. Spleens were harvested post mortem 16 hours post-injection. The reporter levels (RLU) were evaluated from the whole tissue homogenate.
# The transfection complexes (CPP/mRNA) were formed using 10 μg of mRNA mixed with each peptide at indicated charge ratios (CRs) in MQ water in a final volume of 100 μl. CRs were calculated theoretically and account for both the positive charges of the peptide and negative charges of the nucleic acid. The transfection complexes (CPP/mRNA and CPP/pDNA) were formed using 50 μg of mRNA mixed with each peptide at indicated charge ratios (CRs) in MQ water in a final volume of 168 μl. The complexes were incubated for 30 minutes at room temperature and then mixed with equal volume of 10% glucose (resulting in a final solution of 5% glucose in a total volume of 200 μl for 10 μg dose groups and 336 μl for 50 μg dose groups) and immediately injected intravenously via the tail vein.
# The reporter gene (luciferase) expression levels were evaluated from the tissue homogenate post mortem 16-24 h after single injection.
# CPPs and mRNA complexes were injected through the tail vein of BALB/c mice, spleens were harvested 16 hours after the single injection and reporter signal was measured from the whole tissue homogenate (FIG. 5 and Table 5).
# [2] = tested on: CHO-K1 cells; assay: Delivery of reporter mRNA with CPPs in cell culture (luciferase luminescence 24 h post-transfection); assay type: cell-based; settings: for Average RLU/mg (reporter levels post-transfection of mRNA): firefly luciferase mRNA, 0.1 μg per well, charge ratio 3:1, serum containing media, 24 h, RLU normalised to total protein in lysate; for Efficiency of mRNA transfection/delivery: FIG. 1 / Table 2, cell culture
# Method: FIG. 1: Delivery of reporter mRNA with CPPs in cell culture—evaluation of reporter levels post-transfection (relative light units normalised to total protein in the cell lysate (RLU/mg)). Naked mRNA treated cells were used as controls and Lipofectamine3000 (LF3000) was used to compare the transfection efficacy with a liposome-based transfection reagent.
# Adherent CHO-K1 cells were grown in Dulbecco's Modified Eagle's Medium (DMEM), which were supplemented with 0.1 mM non-essential amino acids, 1.0 mM sodium pyruvate, 100 U/ml penicillin, and […]. For complete media, 10% (final) fetal bovine serum (FBS) was added. Cells were maintained in a humidified incubator at 37 °C, 5% CO2. Cell viability and confluence was assessed daily and the cell density was reduced regularly. For cell counting, we used the CytoSMART cell counter accompanied by 0.4% trypan blue staining prior measurement. The multi-well plates with cell cultures used for experiments were incubated in a humidified incubator at 37 °C, 5% CO2.
# For in vitro experiments 0.1 μg of nucleic acid (plasmid DNA (pDNA) or mRNA) was used per 96-well plate well. For CPP/NA complex formation, the diluted NA was mixed with CPP in water. Complexes were formed based on the theoretical charge ratio (CR) of positive charges from the peptide in excess to the negative charges from nucleic acid backbone, at charge ratio 3:1 with peptide in excess. Commercial reagent Lipofectamine3000 (LF3000) was used according to the manufacturer's recommendations for the transfection of adherent cells.
# For reporter luminescence (expressed from firefly luciferase encoding mRNA or plasmid pDNA) assessment in adherent cell culture, 10,000 cells per 96-well plate well were seeded in 100 μl of media one day prior to transfection. Shortly before transfection, cell media was replaced with 100 μl of serum containing (10% foetal bovine serum) DMEM media. CPPs and mRNA or pDNA were mixed at a charge ratio 3:1 in ultrapure water and incubated at room temperature before addition to cells in serum containing media. Cells were transfected with 0.1 μg of mLuc per well.
# 24 hours post-transfection, the media was aspirated, cells were washed with 1×PBS, and 30 μl of lysis buffer (0.1% Triton X100 in 1×PBS) was added. Cells were incubated with lysis buffer for 20 min. to lyse the cells. From the lysate, 20 μl was transferred to a black frame white well 96-well plate for luminescence measurement after addition of substrate luciferin (PerkinElmer) in buffer. The luminescence signal was detected with GloMax® 96 microplate luminometer equipped with GloMax® 1.9.2 software (Promega). RLU values were converted to RLU/mg by normalization to total protein in cell lysate, reflecting total number of cells. For protein detection, a Pierce™ BCA Protein Assay Kit was used.
# The present inventors have previously reported CPPs developed from the NickFect (NF) and PepFect (PF) families for plasmid (pDNA), siRNA and miRNA delivery (see, e.g. WO 2020/144317, WO 2010/039088 and WO 2012/113846). With the emergence of mRNA-based therapeutics, it was decided to investigate peptides for their ability to deliver mRNA. It was assumed that CPPs that are efficient for siRNA and miRNA delivery, e.g. histidine containing CPPs (Porosk et. al. (2019)), may be good candidates for the delivery of mRNA. Therefore, CPPs from each main family (NF55-, PF14- and NF70-derived CPPs) were tested for mRNA delivery/transfection. Naked mRNA treated and untreated cells were used as control groups. LF3000 was used to compare the transfection efficacy of liposome-based transfection reagents with the CPPs (FIG. 1).
Compound,Reporter levels in the spleen (RLU) [1],Average RLU/mg (reporter levels post-transfection of mRNA) [2],Efficacy of mRNA delivery into the spleen in vivo ([1]; in words),"Delivery of mRNA in vivo compared to NF54 and/or NF55 ([1]; in words, comparator NF54 and/or NF55)",Efficiency of mRNA transfection/delivery ([2]; in words),"Delivery of mRNA compared to NF55 ([2]; in words, comparator NF55)"
CCCCCCCCCCCCCCCCCCCC(=O)N[C@@H](C)C(=O)NCC(=O)N[C@@H](Cc1ccc(O)cc1)C(=O)N[C@@H](CC(C)C)C(=O)N[C@@H](CC(C)C)C(=O)NCC(=O)NCCCC[C@H](N)C(=O)N[C@H](C(=O)N[C@@H](CC(N)=O)C(=O)N[C@@H](CC(C)C)C(=O)N[C@@H](CCCCN)C(=O)N[C@@H](C)C(=O)N[C@@H](CC(C)C)C(=O)N[C@@H](C)C(=O)N[C@@H](C)C(=O)N[C@@H](CC(C)C)C(=O)N[C@@H](C)C(=O)N[C@@H](CCCCN)C(=O)N[C@@H](C)C(=O)N[C@H](C(=O)N[C@@H](CC(C)C)C(N)=O)[C@@H](C)CC)[C@@H](C)CC [NF412] (I: H-KINLKALAALAKAIL-NH2 / II: Arachidoyl-AGYLLG; amide I:1-II:C),36 759 RLU,393 000 000 RLU/mg,,,,
CCCCCCCCCCCCCCCCCC(=O)N[C@@H](C)C(=O)NCC(=O)N[C@@H](Cc1ccc(O)cc1)C(=O)N[C@@H](CC(C)C)C(=O)N[C@@H](CC(C)C)C(=O)NCC(=O)NCCC[C@H](N)C(=O)N[C@H](C(=O)N[C@@H](CC(N)=O)C(=O)N[C@@H](CC(C)C)C(=O)N[C@@H](CCCCN)C(=O)N[C@@H](C)C(=O)N[C@@H](CC(C)C)C(=O)N[C@@H](C)C(=O)N[C@@H](C)C(=O)N[C@@H](CC(C)C)C(=O)N[C@@H](C)C(=O)N[C@@H](C)C(=O)N[C@@H](CCCCN)C(=O)N[C@H](C(=O)N[C@@H](CC(C)C)C(N)=O)[C@@H](C)CC)[C@@H](C)CC [NF54],225 675 RLU,2 160 000 000 RLU/mg,delivered mRNA into the spleen in vivo with high efficacy,good improvement in mRNA delivery in vivo over NF55,the most efficient,significantly improved delivery of mRNA over NF55
CCCCCCCCCCCCCCCCCC(=O)N[C@@H](C)C(=O)NCC(=O)N[C@@H](Cc1ccc(O)cc1)C(=O)N[C@@H](CC(C)C)C(=O)N[C@@H](CC(C)C)C(=O)NCC(=O)N[C@@H](CCN)C(=O)N[C@H](C(=O)N[C@@H](CC(N)=O)C(=O)N[C@@H](CC(C)C)C(=O)N[C@@H](CCCCN)C(=O)N[C@@H](C)C(=O)N[C@@H](CC(C)C)C(=O)N[C@@H](C)C(=O)N[C@@H](C)C(=O)N[C@@H](CC(C)C)C(=O)N[C@@H](C)C(=O)N[C@@H](CCCCN)C(=O)N[C@@H](C)C(=O)N[C@H](C(=O)N[C@@H](CC(C)C)C(N)=O)[C@@H](C)CC)[C@@H](C)CC [NF559],56 280 RLU,563 000 000 RLU/mg,,,,
CCCCCCCCCCCCCCCCCC(=O)N[C@@H](C)C(=O)NCC(=O)N[C@@H](Cc1ccc(O)cc1)C(=O)N[C@@H](CC(C)C)C(=O)N[C@@H](CC(C)C)C(=O)NCC(=O)NCCC[C@H](N)C(=O)N[C@@H](CC(C)C)C(=O)N[C@@H](CCCCN)C(=O)N[C@@H](C)C(=O)N[C@@H](CC(C)C)C(=O)N[C@@H](C)C(=O)N[C@@H](C)C(=O)N[C@@H](CC(C)C)C(=O)N[C@@H](C)C(=O)N[C@@H](CCCCN)C(=O)N[C@@H](C)C(=O)N[C@H](C(=O)N[C@@H](CC(C)C)C(N)=O)[C@@H](C)CC [NF430] (I: H-[Orn]LKALAALAKAIL-NH2 / II: Stearoyl-AGYLLG; amide I:1-II:C),405 318 RLU,766 000 000 RLU/mg,highest reporter levels after mRNA delivery into the spleen in vivo,,,
CCCCCCCCCCCCCCCCCCCCCC(=O)N[C@@H](C)C(=O)NCC(=O)N[C@@H](Cc1ccc(O)cc1)C(=O)N[C@@H](CC(C)C)C(=O)N[C@@H](CC(C)C)C(=O)NCC(=O)NCC[C@H](N)C(=O)N[C@H](C(=O)N[C@@H](CC(N)=O)C(=O)N[C@@H](CC(C)C)C(=O)N[C@@H](CCCCN)C(=O)N[C@@H](C)C(=O)N[C@@H](CC(C)C)C(=O)N[C@@H](C)C(=O)N[C@@H](C)C(=O)N[C@@H](CC(C)C)C(=O)N[C@@H](C)C(=O)N[C@@H](CCCCN)C(=O)N[C@@H](C)C(=O)N[C@H](C(=O)N[C@@H](CC(C)C)C(N)=O)[C@@H](C)CC)[C@@H](C)CC [NF423],,556 000 000 RLU/mg,,,,
CCCCCCCCCCCCCCCC(=O)N[C@@H](C)C(=O)NCC(=O)N[C@@H](Cc1ccc(O)cc1)C(=O)N[C@@H](CC(C)C)C(=O)N[C@@H](CC(C)C)C(=O)NCC(=O)NCC[C@H](N)C(=O)N[C@@H](CC(C)C)C(=O)N[C@@H](CCCCN)C(=O)N[C@@H](C)C(=O)N[C@@H](CC(C)C)C(=O)N[C@@H](C)C(=O)N[C@@H](C)C(=O)N[C@@H](CC(C)C)C(=O)N[C@@H](C)C(=O)N[C@@H](CCCCN)C(=O)N[C@@H](C)C(=O)N[C@H](C(=O)N[C@@H](CC(C)C)C(N)=O)[C@@H](C)CC [NF425] (I: H-[Dab]LKALAALAKAIL-NH2 / II: Palmitoyl-AGYLLG; amide I:1-II:C),209 700 RLU,106 000 000 RLU/mg,delivered mRNA into the spleen in vivo with high efficacy,,,
CCCCCCCCCCCCCCCCCCCC(=O)N[C@@H](C)C(=O)NCC(=O)N[C@@H](Cc1ccc(O)cc1)C(=O)N[C@@H](CC(C)C)C(=O)N[C@@H](CC(C)C)C(=O)NCC(=O)NCCC[C@H](N)C(=O)N[C@H](C(=O)N[C@@H](CC(N)=O)C(=O)N[C@@H](CC(C)C)C(=O)N[C@@H](CCCCN)C(=O)N[C@@H](C)C(=O)N[C@@H](CC(C)C)C(=O)N[C@@H](C)C(=O)N[C@@H](C)C(=O)N[C@@H](CC(C)C)C(=O)N[C@@H](C)C(=O)N[C@@H](CCCCN)C(=O)N[C@@H](C)C(=O)N[C@H](C(=O)N[C@@H](CC(C)C)C(N)=O)[C@@H](C)CC)[C@@H](C)CC [NF410],36 670 RLU,1 080 000 000 RLU/mg,,,the most efficient,
NF72: SEQ ID NO: 15; HHHHHHYHHGO*ILLKALKALAKAIL; control/comparator construct [reference compound],,78 023 RLU/mg,,,,
CCCCCCCCCCCCCCCC(=O)N[C@@H](C)C(=O)NCC(=O)N[C@@H](Cc1ccc(O)cc1)C(=O)N[C@@H](CC(C)C)C(=O)N[C@@H](CC(C)C)C(=O)NCC(=O)NCC[C@H](N)C(=O)N[C@H](C(=O)N[C@@H](CC(N)=O)C(=O)N[C@@H](CC(C)C)C(=O)N[C@@H](CCCCN)C(=O)N[C@@H](C)C(=O)N[C@@H](CC(C)C)C(=O)N[C@@H](C)C(=O)N[C@@H](C)C(=O)N[C@@H](CC(C)C)C(=O)N[C@@H](C)C(=O)N[C@@H](CCCCN)C(=O)N[C@@H](C)C(=O)N[C@H](C(=O)N[C@@H](CC(C)C)C(N)=O)[C@@H](C)CC)[C@@H](C)CC [NF422],,159 000 000 RLU/mg,,,,
